The values below come from patent publication US20210070748A1, “INHIBITORS OF BRUTONS TYROSINE KINASE” (Pharmacyclics LLC, priority 2015, published 2021).

Holding throughout (type): biochemical
For test [1], the target named is T1, BTK-WT (Homo sapiens, UniProt Q06187).
T1 construct: purified from insect cells as a full-length construct containing an N-terminal 6X-His tag; His6 (N); made in house; host or cells: insect cells (baculovirus Sf21 in Method B)
Kind of test: Btk in vitro inhibitory activity (one of Method A TR-FRET, Method B electrophoretic mobility shift, Method C radiometric filter binding). The conditions noted are these: D-compounds panel data; read-out: IC50 BTK-WT.

Test [2] addresses LCK (Homo sapiens, UniProt P06239). Kind of test: Inhibition of a panel of kinases, in vitro HotSpot kinase assay: LCK. The conditions noted are these: D-compounds panel data; 1 μM ATP; read-out: IC50 LCK.
Test [3] addresses EGFR (Homo sapiens, UniProt P00533). Kind of test: Inhibition of a panel of kinases, in vitro HotSpot kinase assay: EGFR. The settings on record: D-compounds panel data; 1 μM ATP. As for the experimental part: (§1) The degree of inhibition of a panel of kinases is determined using the in vitro HotSpot kinase assay (purified enzymes, ^33P-ATP, an appropriate substrate and 1 μM ATP).

Test [4] addresses SRC (Homo sapiens, UniProt P12931). The test is described as follows: Inhibition of a panel of kinases, in vitro HotSpot kinase assay: SRC. The settings on record: D-compounds panel data; 1 μM ATP. Here is the method:
as §1

Test [5] has as its target T2, TEC (Homo sapiens, UniProt P42680).
T2 sequence (P42680 1-631): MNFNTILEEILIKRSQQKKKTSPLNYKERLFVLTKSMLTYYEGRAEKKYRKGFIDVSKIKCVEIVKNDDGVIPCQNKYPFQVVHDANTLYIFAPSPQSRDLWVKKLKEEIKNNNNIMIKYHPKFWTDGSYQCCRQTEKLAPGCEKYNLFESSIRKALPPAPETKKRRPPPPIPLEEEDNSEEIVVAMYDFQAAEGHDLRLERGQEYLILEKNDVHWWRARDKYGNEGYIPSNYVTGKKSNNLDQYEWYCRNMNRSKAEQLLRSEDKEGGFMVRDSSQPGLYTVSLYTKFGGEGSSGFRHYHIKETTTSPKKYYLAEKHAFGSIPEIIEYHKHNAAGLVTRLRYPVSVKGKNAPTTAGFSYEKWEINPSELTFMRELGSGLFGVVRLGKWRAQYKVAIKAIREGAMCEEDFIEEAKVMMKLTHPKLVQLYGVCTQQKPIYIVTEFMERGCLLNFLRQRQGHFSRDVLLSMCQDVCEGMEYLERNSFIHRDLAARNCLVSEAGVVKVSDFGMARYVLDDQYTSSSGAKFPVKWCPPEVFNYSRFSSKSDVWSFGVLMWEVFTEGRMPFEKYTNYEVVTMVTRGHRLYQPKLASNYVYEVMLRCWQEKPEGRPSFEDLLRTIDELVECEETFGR
The test is described as follows: Inhibition of a panel of kinases, in vitro HotSpot kinase assay: TEC. The settings on record: D-compounds panel data; 1 μM ATP. As for the experimental part: as §1

SMILES strings stand for the structures.

Chain of SRC (P12931 whole entry): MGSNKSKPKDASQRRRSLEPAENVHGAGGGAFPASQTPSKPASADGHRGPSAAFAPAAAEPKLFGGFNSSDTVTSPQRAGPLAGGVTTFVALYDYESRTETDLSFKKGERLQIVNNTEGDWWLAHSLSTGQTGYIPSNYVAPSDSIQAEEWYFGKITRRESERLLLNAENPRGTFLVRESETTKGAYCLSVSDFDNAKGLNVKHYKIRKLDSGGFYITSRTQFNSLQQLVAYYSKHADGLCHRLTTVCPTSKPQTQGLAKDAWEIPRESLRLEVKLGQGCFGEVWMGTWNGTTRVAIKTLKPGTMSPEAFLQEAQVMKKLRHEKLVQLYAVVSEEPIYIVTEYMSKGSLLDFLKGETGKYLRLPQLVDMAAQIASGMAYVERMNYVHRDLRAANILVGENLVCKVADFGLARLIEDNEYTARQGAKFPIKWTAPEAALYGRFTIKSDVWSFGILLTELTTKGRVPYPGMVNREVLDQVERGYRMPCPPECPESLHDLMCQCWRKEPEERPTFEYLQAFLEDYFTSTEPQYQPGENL
Chain of LCK (P06239 whole entry): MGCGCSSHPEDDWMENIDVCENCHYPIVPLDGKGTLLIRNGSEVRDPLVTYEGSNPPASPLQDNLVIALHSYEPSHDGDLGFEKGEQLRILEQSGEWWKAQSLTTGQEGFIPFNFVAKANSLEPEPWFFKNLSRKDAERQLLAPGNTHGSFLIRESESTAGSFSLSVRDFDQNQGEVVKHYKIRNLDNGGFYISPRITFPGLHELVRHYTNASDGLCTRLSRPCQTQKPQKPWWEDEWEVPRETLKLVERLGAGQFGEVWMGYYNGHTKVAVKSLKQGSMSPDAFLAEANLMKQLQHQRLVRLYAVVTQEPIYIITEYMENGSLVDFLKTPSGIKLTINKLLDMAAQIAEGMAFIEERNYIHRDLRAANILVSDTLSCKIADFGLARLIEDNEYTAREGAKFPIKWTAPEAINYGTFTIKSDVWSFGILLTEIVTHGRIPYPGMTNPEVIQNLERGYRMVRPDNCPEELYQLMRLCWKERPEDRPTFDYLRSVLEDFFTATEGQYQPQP
Chain of EGFR (P00533 25-1210): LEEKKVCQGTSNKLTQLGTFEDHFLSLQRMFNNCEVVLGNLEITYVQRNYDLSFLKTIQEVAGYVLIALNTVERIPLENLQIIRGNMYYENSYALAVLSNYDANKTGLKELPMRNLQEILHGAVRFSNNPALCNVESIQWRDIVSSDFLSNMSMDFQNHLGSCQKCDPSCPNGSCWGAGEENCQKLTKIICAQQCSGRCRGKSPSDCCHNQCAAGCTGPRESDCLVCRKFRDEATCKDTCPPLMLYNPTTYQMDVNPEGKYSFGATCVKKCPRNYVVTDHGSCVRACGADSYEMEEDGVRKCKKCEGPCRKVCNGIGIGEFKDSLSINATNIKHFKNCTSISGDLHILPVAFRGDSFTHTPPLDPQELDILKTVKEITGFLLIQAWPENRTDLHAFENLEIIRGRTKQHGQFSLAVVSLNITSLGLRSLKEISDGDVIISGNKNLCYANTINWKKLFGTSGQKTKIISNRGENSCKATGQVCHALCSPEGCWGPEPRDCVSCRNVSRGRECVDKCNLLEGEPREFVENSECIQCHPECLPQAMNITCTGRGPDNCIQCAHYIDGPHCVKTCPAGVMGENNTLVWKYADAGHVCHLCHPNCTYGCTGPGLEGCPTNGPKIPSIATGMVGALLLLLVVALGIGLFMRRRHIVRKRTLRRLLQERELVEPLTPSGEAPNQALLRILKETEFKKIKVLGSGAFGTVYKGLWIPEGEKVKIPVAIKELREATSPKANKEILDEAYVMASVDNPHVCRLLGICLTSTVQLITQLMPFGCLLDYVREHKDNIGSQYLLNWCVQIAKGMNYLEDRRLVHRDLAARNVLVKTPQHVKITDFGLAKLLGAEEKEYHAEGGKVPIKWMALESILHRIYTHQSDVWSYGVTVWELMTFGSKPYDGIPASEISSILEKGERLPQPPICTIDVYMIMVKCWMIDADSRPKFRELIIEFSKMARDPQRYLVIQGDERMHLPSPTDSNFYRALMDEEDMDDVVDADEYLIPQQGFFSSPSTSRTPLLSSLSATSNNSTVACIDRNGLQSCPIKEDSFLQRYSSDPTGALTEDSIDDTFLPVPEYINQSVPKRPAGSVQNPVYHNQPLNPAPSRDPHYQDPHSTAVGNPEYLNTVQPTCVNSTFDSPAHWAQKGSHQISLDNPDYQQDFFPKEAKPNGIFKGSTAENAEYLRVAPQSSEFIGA
T1 sequence (Q06187 whole entry): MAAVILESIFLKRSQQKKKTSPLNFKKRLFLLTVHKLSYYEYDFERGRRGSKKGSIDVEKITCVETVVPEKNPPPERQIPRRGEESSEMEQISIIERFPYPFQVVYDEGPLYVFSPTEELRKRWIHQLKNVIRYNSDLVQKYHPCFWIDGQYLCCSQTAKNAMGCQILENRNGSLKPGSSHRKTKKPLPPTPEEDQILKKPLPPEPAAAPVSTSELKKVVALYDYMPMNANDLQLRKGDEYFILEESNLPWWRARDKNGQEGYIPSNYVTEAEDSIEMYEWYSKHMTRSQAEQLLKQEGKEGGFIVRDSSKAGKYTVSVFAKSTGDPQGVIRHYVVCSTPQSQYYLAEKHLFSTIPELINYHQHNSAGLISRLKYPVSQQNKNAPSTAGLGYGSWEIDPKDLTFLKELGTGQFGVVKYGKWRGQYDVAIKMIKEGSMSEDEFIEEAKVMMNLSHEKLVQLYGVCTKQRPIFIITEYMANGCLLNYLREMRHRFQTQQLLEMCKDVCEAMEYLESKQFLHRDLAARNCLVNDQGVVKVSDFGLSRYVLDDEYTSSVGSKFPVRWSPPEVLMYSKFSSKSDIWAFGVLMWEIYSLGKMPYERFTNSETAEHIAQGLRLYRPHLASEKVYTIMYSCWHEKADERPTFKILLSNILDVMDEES

On to `Cc1ncc(Nc2nc(N3CCC[C@@H](NC(=O)c4ccc(C5CC5)cc4F)C3)cnc2C(N)=O)s1` [Example D-4, 5-[(3R)-3-(4-cyclopropyl-2-fluorobenzamido)piperidin-1-yl]-3-[(2-methyl-1,3-thiazol-5-yl)amino]pyrazine-2-carboxamide], for which the IC50 (in general, the midpoint of a concentration-inhibition curve) in test [1] was 10 to 100 nM; in test [2], greater than 10000 nM; in test [3], greater than 10 µM; in test [4], greater than 10000 nM; in test [5], 100 to 1000 nM.
As for `C[C@@H]1[C@H](NC(=O)c2ccc(C3CC3)cc2)CCCN1c1cnc(C(N)=O)c(Nc2ccc(C3CCOCC3)cc2)n1` [Example D-317, 5-[(2R,3R)-3-(4-cyclopropylbenzamido)-2-methylpiperidin-1-yl]-3-{[4-(oxan-4-yl)phenyl]amino}pyrazine-2-carboxamide], the IC50 is no more than 10 nM in test [1]; greater than 10000 nM in test [2]; greater than 10 µM in test [3]; greater than 10000 nM in test [4]; 10 to 100 nM in test [5].
For the compound `Cn1cc(Nc2nc(N3CCC(NC(=O)c4ccc(C5CC5)cc4)C(O)C3)cnc2C(N)=O)cn1` (single isomer, unassigned) [Example D-29, Trans-5-[4-(4-cyclopropylbenzamido)-3-hydroxypiperidin-1-yl]-3-[(1-methyl-1H-pyrazol-4-yl)amino]pyrazine-2-carboxamide], the IC50 in test [1] is 100 to 1000 nM; in test [2], greater than 10000 nM; in test [3], greater than 10 µM; in test [4], 1000 to 10000 nM; in test [5], 1000 to 10000 nM.
As for `CN1CCN(C(=O)c2ccc(Nc3nc(N[C@H]4CC[C@H](NC(=O)c5ccc(C6CC6)cc5F)CC4)cnc3C(N)=O)cc2)CC1` [Example D-70, 3-{[4-(4-methylpiperazine-1-carbonyl)phenyl]amino}-5-{[(1 r,4r)-4-(4-cyclopropyl-2-fluorobenzamido)cyclohexyl]amino}pyrazine-2-carboxamide], the half-maximal inhibitory concentration (IC50) is 10 to 100 nM in test [1]; 100 to 1000 nM in test [2]; 0.1 to 1 µM in test [3]; 100 to 1000 nM in test [4]; 100 to 1000 nM in test [5].
`Cc1cc(Nc2nc(N3CCC[C@@H](NC(=O)N(C)C)[C@H]3CO)cnc2C(N)=O)sn1` [Example D-67, 5-[(2S,3R)-3-[(dimethylcarbamoyl)amino]-2-(hydroxymethyl)piperidin-1-yl]-3-[(3-methyl-1,2-thiazol-5-yl)amino]pyrazine-2-carboxamide]: the IC50 in test [1] lay within 10 to 100 nM; in test [2] it was 100 to 1000 nM; in test [3], 0.1 to 1 µM; in test [4] it was 100 to 1000 nM; in test [5] it was 100 to 1000 nM.
For the compound `Cc1cc(Nc2nc(N3C[C@@H](NC(=O)N(C)C)CC[C@@H]3C)cnc2C(N)=O)sn1` [Example D-76, 5-[(2S,5S)-5-[(dimethylcarbamoyl)amino]-2-methylpiperidin-1-yl]-3-[(3-methyl-1,2-thiazol-5-yl)amino]pyrazine-2-carboxamide], the half-inhibitory concentration (IC50) in test [1] is 100 to 1000 nM; in test [2] it was greater than 10000 nM; in test [3], 1 to 10 µM; in test [4], 1000 to 10000 nM; in test [5], 1000 to 10000 nM.
With `C[C@@H]1[C@H](NC(=O)c2ccc(C(C)(C)C#N)cc2)CCCN1c1cnc(C(N)=O)c(Nc2cnn(C)c2)n1` [Example D-88, 5-[(2R,3R)-3-[4-(1-cyano-1-methylethyl)benzamido]-2-methylpiperidin-1-yl]-3-[(1-methyl-1H-pyrazol-4-yl)amino]pyrazine-2-carboxamide], the IC50 is no more than 10 nM in test [1]; 100 to 1000 nM in test [2]; 1 to 10 µM in test [3]; 10 to 100 nM in test [4]; 10 to 100 nM in test [5].
Take `C[C@@H]1[C@H](NC(=O)c2ccc(C3CC3)cc2)CCCN1c1cnc(C(N)=O)c(Nc2cnn(CC3CCC(F)(F)CC3)c2)n1` [Example D-321, 5-[(2R,3R)-3-(4-cyclopropylbenzamido)-2-methylpiperidin-1-yl]-3-({1-[(4,4-difluorocyclohexyl)methyl]-1H-pyrazol-4-yl}amino)pyrazine-2-carboxamide]: the 50% inhibitory concentration (IC50) in test [1] is 10 to 100 nM; in test [2] it was 1000 to 10000 nM; in test [3] it was greater than 10 µM; in test [4], 100 to 1000 nM; in test [5] it was 10 to 100 nM.
Consider `Cn1cc(Nc2nc(N3CC[C@@H](O)[C@H](NC(=O)c4ccc(C5CC5)cc4)C3)cnc2C(N)=O)cn1` (racemic) [Example D-26, (racemic)-trans-5-[3-(4-cyclopropylbenzamido)-4-hydroxypiperidin-1-yl]-3-[(1-methyl-1H-pyrazol-4-yl)amino]pyrazine-2-carboxamide], for which the IC50 is 10 to 100 nM in test [1]; 1000 to 10000 nM in test [2]; greater than 10 µM in test [3]; 1000 to 10000 nM in test [4]; 100 to 1000 nM in test [5].
Take `Cn1cc(Nc2nc(N3CCC[C@H]4[C@@H]3CCN4C(=O)c3ccc(C4CC4)cc3)cnc2C(N)=O)cn1` [Example D-45, 5-[(3aS,7aS)-1-(4-cyclopropylbenzoyl)-octahydro-1H-pyrrolo[3,2-b]pyridin-4-yl]-3-[(1-methyl-1H-pyrazol-4-yl)amino]pyrazine-2-carboxamide]: the IC50 in test [1] is 10 to 100 nM; in test [2] it was 100 to 1000 nM; in test [3], greater than 10 µM; in test [4] it was 1000 to 10000 nM; in test [5] it was 100 to 1000 nM.
On to `C[C@@H]1C[C@H](NC(=O)c2ccc(C3CC3)cc2)CN(c2cnc(C(N)=O)c(Nc3cnn(C)c3)n2)C1` [Example D-32, 5-[(3S,5R)-3-(4-cyclopropylbenzamido)-5-methylpiperidin-1-yl]-3-[(1-methyl-1H-pyrazol-4-yl)amino]pyrazine-2-carboxamide], for which the IC50 in test [1] is 100 to 1000 nM; in test [2], 1000 to 10000 nM; in test [3], greater than 10 µM; in test [4] it was greater than 10000 nM; in test [5], 100 to 1000 nM.
Take `CN1CCN(C(=O)c2ccc(Nc3nc(N[C@H]4CC[C@H](NC(=O)N(C)C)CC4)cnc3C(N)=O)cc2)CC1` [Example D-69, 3-{[4-(4-methylpiperazine-1-carbonyl)phenyl]amino}-5-{[(1 r,4r)-4-[(dimethylcarbamoyl)amino]cyclohexyl]amino}pyrazine-2-carboxamide]: the half-inhibitory concentration (IC50) in test [1] fell in the range of 10 to 100 nM; in test [2] it was 10 to 100 nM; in test [3], 0.1 to 1 µM; in test [4], 100 to 1000 nM; in test [5], 1000 to 10000 nM.
In the case of `C[C@@H]1[C@H](NC(=O)C23CC(C2)C3)CCCN1c1cnc(C(N)=O)c(Nc2cnn(C)c2)n1` [Example D-90, 5-[(2R,3R)-3-{bicyclo[1.1.1]pentane-1-amido}-2-methylpiperidin-1-yl]-3-[(1-methyl-1H-pyrazol-4-yl)amino]pyrazine-2-carboxamide], the concentration for half-maximal inhibition (IC50) in test [1] lay within 10 to 100 nM; in test [2] it was 100 to 1000 nM; in test [3], 1 to 10 µM; in test [4], 100 to 1000 nM; in test [5], 10 to 100 nM.
For `Cn1cc(Nc2nc(N3CCC[C@@H]4[C@H]3CCCN4C(=O)c3ccc(C4CC4)cc3)cnc2C(N)=O)cn1` [Example D-46, 5-I[(4aR,8aR)-5-(4-cyclopropylbenzoyl)-decahydro-1,5-naphthyridin-1-yl]-3-[(1-methyl-1H-pyrazol-4-yl)amino]pyrazine-2-carboxamide], the IC50 fell in the range of 10 to 100 nM in test [1]; 100 to 1000 nM in test [2]; 0.1 to 1 µM in test [3]; 100 to 1000 nM in test [4]; 10 to 100 nM in test [5].
Regarding `CN(C)C(=O)N[C@H]1CCCN(c2cnc(C(N)=O)c(Nc3ccc4ncccc4c3)n2)[C@H]1CO` (racemic) [Example D-65, cis 5-[3-[(dimethylcarbamoyl)amino]-2-(hydroxymethyl)piperidin-1-yl]-3-[(quinolin-6-yl)amino]pyrazine-2-carboxamide], the concentration for half-maximal inhibition (IC50) was 100 to 1000 nM in test [1]; greater than 10000 nM in test [2]; greater than 10 µM in test [3]; 1000 to 10000 nM in test [4]; 1000 to 10000 nM in test [5].
In the case of `C[C@@H]1[C@H](NC(=O)N(C)C)CCCN1c1cnc(C(N)=O)c(Nc2ccc(N3CCN(C)CC3)cc2F)n1` [Example D-52, 5-[(2R,3R)-3-[(dimethylcarbamoyl)amino]-2-methylpiperidin-1-yl]-3-{[2-fluoro-4-(4-methylpiperazin-1-yl)phenyl]amino}pyrazine-2-carboxamide], the IC50 in test [1] was in the range of 10 to 100 nM; in test [2], 1000 to 10000 nM; in test [3], 1 to 10 µM; in test [4], 100 to 1000 nM; in test [5], 100 to 1000 nM.
